In ChEMBL document CHEMBL4385604, “Identification of Pyrrolo[2,3- d]pyrimidine-Based Derivatives as Potent and Orally Effective Fms-like Tyrosine Receptor Kinase 3 (FLT3) Inhibitors for Treating Acute Myelogenous Leukemia” (J Med Chem, 2019):
pIC50: −log10 of the molar value.

Key:
RS4-11 = assay: Antiproliferative activity against human RS4:11 cells harboring wild-type FLT3 measured after 72 hrs by MTT assay; assay type: functional, cell-based; conditions: RS4-11, 72 h
BaF3 [1] = assay: cells; conditions: Mus musculus, BaF3, 72 h
Description: Antiproliferative activity against mouse BAF3 cells harboring FLT3-ITD-D835V mutant measured after 72 hrs by MTT assay

MV4-11 = assay: cells; conditions: Homo sapiens, MV4-11, 72 h
Description: Antiproliferative activity against human MV4-11 cells harboring FLT3-ITD mutant measured after 72 hrs by MTT assay

BaF3 [2] = assay: cells; conditions: Mus musculus, BaF3, 72 h; remark: listed apart in the source
Description: Antiproliferative activity against mouse BAF3 cells harboring FLT3-ITD-F691L mutant measured after 72 hrs by MTT assay

[3] = target: T1, Receptor-type tyrosine-protein kinase FLT3 (Homo sapiens, UniProt P36888)
T1 sequence (P36888 whole entry): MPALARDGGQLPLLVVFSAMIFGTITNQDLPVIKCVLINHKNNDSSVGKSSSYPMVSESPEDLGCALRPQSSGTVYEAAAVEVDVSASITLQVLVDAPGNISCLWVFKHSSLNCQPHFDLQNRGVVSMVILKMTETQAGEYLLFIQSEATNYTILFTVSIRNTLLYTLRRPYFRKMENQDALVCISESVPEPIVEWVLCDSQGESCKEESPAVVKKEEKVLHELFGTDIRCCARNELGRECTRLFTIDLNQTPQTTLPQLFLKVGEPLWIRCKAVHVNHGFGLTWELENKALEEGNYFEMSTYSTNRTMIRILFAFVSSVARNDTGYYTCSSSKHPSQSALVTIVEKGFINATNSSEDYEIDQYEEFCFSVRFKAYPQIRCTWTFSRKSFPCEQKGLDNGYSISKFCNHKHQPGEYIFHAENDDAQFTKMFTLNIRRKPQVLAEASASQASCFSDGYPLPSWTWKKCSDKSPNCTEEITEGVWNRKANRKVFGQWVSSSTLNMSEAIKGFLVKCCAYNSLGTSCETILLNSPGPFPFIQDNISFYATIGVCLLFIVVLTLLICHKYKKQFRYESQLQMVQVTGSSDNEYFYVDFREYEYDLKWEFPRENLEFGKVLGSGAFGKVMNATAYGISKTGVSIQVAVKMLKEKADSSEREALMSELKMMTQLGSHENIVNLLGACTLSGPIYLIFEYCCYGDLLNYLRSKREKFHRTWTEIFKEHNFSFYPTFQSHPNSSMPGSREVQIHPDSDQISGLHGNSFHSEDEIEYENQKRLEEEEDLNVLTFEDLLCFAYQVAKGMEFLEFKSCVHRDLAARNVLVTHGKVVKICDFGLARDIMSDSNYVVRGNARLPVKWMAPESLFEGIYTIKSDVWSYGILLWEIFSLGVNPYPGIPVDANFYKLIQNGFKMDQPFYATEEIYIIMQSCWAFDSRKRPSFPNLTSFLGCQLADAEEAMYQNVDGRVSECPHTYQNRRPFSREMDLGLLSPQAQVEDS

MOLM-13 = assay: cells; conditions: Homo sapiens, MOLM-13, 72 h
Description: Antiproliferative activity against human MOLM13 cells harboring FLT3-ITD mutant measured after 72 hrs by MTT assay

BaF3 [4] = assay: cells; conditions: Mus musculus, BaF3, 72 h; remark: listed apart in the source
Description: Antiproliferative activity against mouse BAF3 cells harboring FLT3-ITD mutant measured after 72 hrs by MTT assay

HL-60 = assay: Antiproliferative activity against human HL60 cells harboring wild-type FLT3 measured after 72 hrs by MTT assay; assay type: functional, cell-based; conditions: HL-60, 72 h

pIC50 (RS4-11) | pIC50 (BaF3 [1]) | pIC50 (MV4-11) | pIC50 (BaF3 [2]) | pIC50 [3] | pIC50 (MOLM-13) | pIC50 (BaF3 [4]) | pIC50 (HL-60) | SMILES
< 6.00 | 6.52 | 7.99 | 6.66 | 6.95 | 8.56 | 8.06 | < 6.00 | CC(C)=CCn1cc(-c2ccc(NC(=O)Nc3cc(C(C)(C)C)on3)cc2)c2c(N)ncnc21
< 6.00 | 7.29 | 8.63 | 7.08 | 7.77 | 9.19 | 8.52 | < 6.00 | C=CCn1cc(-c2ccc(NC(=O)Nc3cc(C(C)(C)C)on3)c(F)c2)c2c(N)ncnc21
< 6.00 | 6.73 | 8.29 | 6.60 | 6.98 | 8.42 | 7.68 | < 6.00 | CCCCCCn1cc(-c2ccc(NC(=O)Nc3cc(C(C)(C)C)on3)cc2)c2c(N)ncnc21
< 6.00 | 6.44 | 8.23 | 6.83 | 7.19 | 8.69 | 8.06 | < 6.00 | CCC#CCn1cc(-c2ccc(NC(=O)Nc3cc(C(C)(C)C)on3)cc2)c2c(N)ncnc21
< 6.00 | 6.95 | 8.66 | 7.50 | 7.66 | 8.63 | 8.37 | < 6.00 | CC(C)(C)c1cc(NC(=O)Nc2ccc(-c3cn(CCC#N)c4ncnc(N)c34)cc2F)no1
< 6.00 | 7.07 | 8.49 | 7.30 | 7.29 | 8.84 | 8.27 | < 6.00 | C=CCCn1cc(-c2ccc(NC(=O)Nc3cc(C(C)(C)C)on3)c(F)c2)c2c(N)ncnc21
< 6.00 | 7.43 | 8.67 | 7.04 | 7.49 | 8.82 | 8.14 | < 6.00 | CC(C)(C)c1cc(NC(=O)Nc2ccc(-c3cn(C4CCCC4)c4ncnc(N)c34)cc2)no1
< 6.00 | 7.06 | 8.41 | 7.29 | 7.59 | 8.94 | 8.21 | < 6.00 | CC#CCn1cc(-c2ccc(NC(=O)Nc3cc(C(C)(C)C)on3)cc2)c2c(N)ncnc21
< 6.00 | 7.55 | 8.76 | 7.55 | 7.51 | 8.71 | 8.51 | < 6.00 | CCN(CC)C(=O)n1cc(-c2ccc(NC(=O)Nc3cc(C(C)(C)C)on3)cc2)c2c(N)ncnc21
< 6.00 | 7.30 | 9.83 | 7.54 | 7.68 | 10.31 | 9.02 | < 6.00 | COCCn1cc(-c2ccc(NC(=O)Nc3cc(C(C)(C)C)on3)cc2)c2c(N)ncnc21
< 6.00 | 7.03 | 8.76 | 7.24 | 7.52 | 8.99 | 8.29 | < 6.00 | C=C(C)Cn1cc(-c2ccc(NC(=O)Nc3cc(C(C)(C)C)on3)cc2)c2c(N)ncnc21
< 6.00 | 7.02 | 8.76 | 6.87 | 7.07 | 8.60 | 8.07 | < 6.00 | CC(C)(C)c1cc(NC(=O)Nc2ccc(-c3cn(Cc4ccccc4)c4ncnc(N)c34)cc2)no1
< 6.00 | 7.33 | 9.51 | 7.55 | 8.15 | 10.85 | 8.84 | < 6.00 | Cn1cc(-c2ccc(NC(=O)Nc3cc(C(C)(C)C)on3)cc2)c2c(N)ncnc21
< 6.00 | 7.64 | 9.32 | 7.54 | 8.15 | 9.84 | 9.04 | < 6.00 | CCn1cc(-c2ccc(NC(=O)Nc3cc(C(C)(C)C)on3)cc2)c2c(N)ncnc21
< 6.00 | 6.78 | 7.85 | 7.07 | 7.59 | 7.97 | 8.44 | < 6.00 | CC(C)(C)c1cc(NC(=O)Nc2ccc(-c3cn(CCN4CCN(S(C)(=O)=O)CC4)c4ncnc(N)c34)cc2)no1
< 6.00 | 6.95 | 8.66 | 6.68 | 7.47 | 8.85 | 8.24 | < 6.00 | CCCCn1cc(-c2ccc(NC(=O)Nc3cc(C(C)(C)C)on3)cc2)c2c(N)ncnc21
< 6.00 | 6.99 | 9.36 | 7.79 | 7.34 | 9.41 | 8.61 | < 6.00 | C#CCn1cc(-c2ccc(NC(=O)Nc3cc(C(C)(C)C)on3)c(F)c2)c2c(N)ncnc21
< 6.00 | 6.73 | 8.75 | 6.64 | 7.15 | 8.54 | 8.22 | < 6.00 | C=CCCCCn1cc(-c2ccc(NC(=O)Nc3cc(C(C)(C)C)on3)cc2)c2c(N)ncnc21
< 6.00 | 7.91 | 9.97 | 8.05 | 7.60 | 10.09 | 8.89 | < 6.00 | CC(C)(C)OC(=O)n1cc(-c2ccc(NC(=O)Nc3cc(C(C)(C)C)on3)cc2)c2c(N)ncnc21
< 6.00 | 7.16 | 8.70 | 7.40 | 7.49 | 9.24 | 8.25 | < 6.00 | COCCn1cc(-c2ccc(NC(=O)Nc3cc(C(C)(C)C)on3)c(F)c2)c2c(N)ncnc21
< 6.00 | 6.41 | 8.60 | < 6.30 |  | 8.35 | 8.05 | < 6.00 | CC(C)(C)OC(=O)N1CCN(CCn2cc(-c3ccc(NC(=O)Nc4cc(C(C)(C)C)on4)cc3)c3c(N)ncnc32)CC1
